{
  "source": "patent US20250177412A1",
  "about": "“SMALL-MOLECULE INHIBITORS TARGETING THE BOB1/OCT1 INTERFACE” (NANTES UNIVERSITE, priority 2022, published 2025)",
  "key": {"[1]": {"system": "BOB1/OCT1-mediated transcription", "experiment": "Luciferase reporter assay (transient transfection, 6xPORE-luc)", "assay_type": "cell-based, human", "experimental": "FIGS. 1A-C are a combination of graphs showing that compound 005 inhibits BOB1/OCT1-mediated transcription in vitro. HEC293Ea1 cells, known to express endogenous OCT1, were co-transfected with […] reporter, pEV-OBF1 (BOB1) effector, and pCMV-β-gal calibrator plasmids. Luciferase and β-galactosidase activities were measured 48 hours after transfection. The 100% luciferase activity was set as activity in presence of vehicle (10 μM DMSO). […] All experiments are performed at least in triplicates. Bars indicate the mean±SEM. * P<0.05, ** P<0.01, *** P<0.001, **** P<0.0001.\nThe HEK293E1a cells were seeded at density 1.2×10^4 per well on 48-well plate in DMEM medium containing 10% fetal calf serum. After 24 hours cells were transfected with plasmid mix (300 ng/well) containing specified amounts of the p6×PORE-luc reporter, pEV-OBF1 and pCG-Oct1 effector, pBluescript II KS+ carrier, and pCMV-βgal (for standardization) as previously described. The transfections were carried out in three biological replicates, using Polyethylenimine (PEI 25K, Polysciences Inc.) at the ratio 2:1 to DNA. After 48 hours, cells were washed with PBS, lysed, and measured for luciferase activity, using the Bright-Glo luciferase assay system (Promega), and for β-galactosidase activity in a standard assay.\nBOB1 has been described as a coactivator acting in cooperation with the POU-domain proteins OCT1 and OCT2 bound to distinct DNA-motifs either in monomeric or dimeric configurations. […] As an initial functional assay, we examined the ability of the compounds according to the present invention to affect BOB1-OCT1-PORE-mediated transcriptional activation in transient transfection luciferase assay. To this end, we made use of previously generated 6×PORE-luc and reporter plasmid, in which hexamers of the PORE were cloned upstream of the thymidine kinase (tk) minimal promoter and luciferase gene. […] Furthermore, the addition of a plasmid expressing exogenous OCT1 exerted an inhibitory effect on both basal and BOB1-mediated transcription (data not shown). This observation is likely due to the fact that HEK293 cells, like all other mammalian cell types, express OCT1, and further addition of exogenous OCT1 in these cells shifts the BOB1/OCT1 equilibrium out of optimal range, resulting in squelching effect, and in our experimental setup, in about 3-fold stimulation, as compared to that by endogenous OCT1 alone (FIG. 1A). […] Compound 005 was selected for further detailed investigation."}, "[2]": {"system": "mouse embryonic fibroblasts (MEFs)", "experiment": "MTT assay", "assay_type": "cell-based", "details": "data not shown"}, "[3]": {"target": "T1, POU domain of OCT1 (POU1) (Homo sapiens, UniProt P14859)", "T1 construct": "6xHis (pET28 N-terminal histidine tag) (N); made in house; host or cells: E. coli BL21", "T1 sequence (P14859 280-438)": "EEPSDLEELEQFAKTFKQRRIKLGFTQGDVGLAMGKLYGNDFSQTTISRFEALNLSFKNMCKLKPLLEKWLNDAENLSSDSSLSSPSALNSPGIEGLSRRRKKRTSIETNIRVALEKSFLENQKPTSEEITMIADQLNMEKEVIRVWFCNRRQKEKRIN", "experiment": "Thermal shift assay (TSA)", "assay_type": "binding", "details": "compound 10 μM, POU1 5 μM", "experimental": "Following primers were used for the amplification:\nPOU1 and BOB1 proteins (each at a final concentration 5 μM), compound 005 (final concentration 10 μM), and 1× ProteOrange fluorescent dye (Lumiprobe, Russia) were mixed in triplicates in 100 μL of 0.1 M phosphate buffered saline pH 7.4 per and pipetted into 96-well 0.2-mL thin-wall PCR plates (Roche Life Science, Switzerland) sealed with optical-grade sealing film. Fluorescence data were acquired on a LightCycler® 96 Real Time PCR Instrument (Roche Life Science, Switzerland) with an excitation range of 470-533 nm. The fluorescence emission signal at […] was measured for data analysis. The temperature was held for 30 sec per degree from 37 to 98° C. (ramp rate of […]). The derivatives of the fluorescence signal as function of the temperature were used for further analysis."}, "PBMCs": {"system": "PBMCs", "experiment": "T cell recall assay (qPCR and intracellular staining)", "assay_type": "cell-based, human", "experimental": "Total PBMCs were plated into 96-well round-bottom plates at 0.5×10^6 cells/well and were stimulated with anti-CD3/CD28 Dynabeads (Gibco Life Technologies) at a bead/cell ratio of 0.2:1 in the presence of compound 005 (10 μM) or vehicle (DMSO) for 6 hours to induce polyclonal primary responses. To induce recall responses, cells were stimulated with beads for two days, allowed to rest for eight days in medium supplemented with IL-2 (10 U/mL) and re-stimulated with anti-CD3/CD28 beads for the last 6 hours in the presence of compound 005 ([…]) or vehicle. Expression of Th1-, Th2-, Th17-, and Treg-associated cytokines and transcription factors was assessed by qPCR. For intracellular staining, cells were re-stimulated for 10 hours with anti-CD3/CD28 beads, and Brefeldin A (10 μg/mL, Sigma) was added to the medium 4 hours after the start of re-stimulation. Dead cells were excluded using the LIVE/DEAD® Fixable Aqua Dead Cell Stain Kit (Life Technologies). Subsequently, cells were surface-stained with CD3-BUV395, CD4-BUV737, CD8-Violet650 (all three from BDHorizon), and CD161-PE-Cy7 (from Biolegend) at 4° C. for 30 min, followed by incubation with Fixation/Permeabilization working solution (eBioscience), washed with Permeabilization Buffer and stained with IL-17A-PE and IFNγ-BV711 (both from BD Biosciences). Cells were resuspended in ice-cold FACS buffer (0.5% BSA, 2 mM EDTA and 50 U/mL penicillin/streptomycin in PBS). Flow cytometry data were collected on BD FACSCelesta™ and analyzed using FlowJo™ cell analysis software (FlowJo, LLC).\nTotal RNA was extracted from PBMCs using the RNeasy Micro Kit (Qiagen) according to the manufacturer's protocol. RNA was processed for cDNA synthesis (Fermentas) and analyzed by qPCR with TaqMan gene expression assays for IFNG (Hs00989291_m1), IL-2 (Hs00174114_m1), TNF (Hs00174128_m1), TBX21 (Hs00203436_m1), IL-4 (Hs00174122_m1), GATA3 (Hs00231122_m1), IL-17A (Hs00174383_m1), IL-17F (Hs00369400_m1), IL-21 (Hs00222327_m1), IL-22 (Hs01574154_m1), RORC (Hs01076122_m1), IL-10 (Hs00961622_m1), FOXP3 (Hs01085834_m1), POU2AF1 (Hs01573371_m1) (Thermofisher) using Real-Time PCR QuantStudio3 PCR System (Applied Biosystems). Expressions of all genes were normalized to the expression of GAPDH (4310884E) as housekeeping gene and presented as fold change relative to the reference sample."}},
  "data": [
    {"compound": "Cc1ccc(NC(=O)C2CN(c3nc(NCCCc4ccc(F)cc4)nc(NCCC(=O)O)n3)c3ccccc3O2)cc1Cl", "note": "(centres unmarked) [compound 005, 3-((4-(2-((3-chloro-4-methylphenyl)carbamoyl)-2,3-dihydro-4H-benzo[b][1,4]oxazin-4-yl)-6-((3-(4-fluorophenyl)propyl)amino)-1,3,5-triazin-2-yl)amino)propanoic acid]", "values": [
      {"measurement": "BOB1/OCT1-driven transcription (relative luciferase activity)", "setting": "[1]; 10 μM in the culture medium", "result": "significantly attenuated"},
      {"measurement": "suppression of transcriptional activation", "setting": "[1]; concentration range from 0.5 to 40 μM", "result": "dose-dependent manner"},
      {"measurement": "concentration showing toxicity", "setting": "[2]", "result": "≥ 80", "unit": "µM"},
      {"measurement": "increase of POU1 melting temperature", "setting": "[3]", "result": "about 4 °C"},
      {"measurement": "TNF expression", "setting": "PBMCs; initial activation, 6 hours-stimulated cells, 10 μM, data not shown", "result": "significant decrease"},
      {"measurement": "IL-17A mRNA, median percentage decrease", "setting": "PBMCs; re-stimulated (recall) cells", "result": 43, "unit": "%"},
      {"measurement": "IL-17F mRNA, median percentage decrease", "setting": "PBMCs; re-stimulated (recall) cells", "result": 27, "unit": "%"},
      {"measurement": "expression of IL-17A by CD4+ T cells (protein, intracellular staining)", "setting": "PBMCs; re-stimulated cells", "result": "suppressed"}
    ]}
  ]
}
